Assay [1] concerns CHO cell line that had been genetically engineered to produce TNFR:Fc. Description: Fraction of TNFR:Fc eluting at high salt from an anion exchange column (relative extent of sialylation). The assay is classed as cell-based, Chinese hamster. The settings on record: additives at 4 mM each in serum-free medium, 7 days at 30° C., FIG. 2. How it is done:
The following experiment was done to determine which carbohydrate or combination of carbohydrates added to cell culture medium is able to induce the most sialylation of TNFR:Fc produced by the cells. The relative extent of sialylation was determined by measuring the fraction of TNFR:Fc produced by a cell culture that elutes from an anion exchange column only at a high salt concentration. This provides a rough measure of the extent of sialylation because proteins with more sialic acid require a higher salt concentration for elution from an anion exchange column. […] Cultures were incubated for 7 days at 30° C. with shaking at 150 revolutions per minute. TNFR:Fc was harvested from the medium after seven days of growth and pre-purified by Protein A affinity chromatography. Thereafter, the purified TNFR:Fc protein concentration was determined by measuring absorbance at 280 nanometers. […] At 22.1 minutes, the gradient was complete, and the column contained 100% Buffer B. Elution of protein was determined by monitoring absorbance at 280 nanometers, and a graph of these measurements versus time (relative to the time of loading) was recorded automatically as the protein eluted from the column. […] The fraction of TNFR:Fc that eluted at high salt was determined by comparing the area under the curve that eluted after soybean trypsin inhibitor with the total area under the curve. […]

For assay [2], the system named is cultured cells. The settings on record: N-acetylmannosamine added to culture medium; cited from earlier work.

The values below come from patent US7645609B2, “Method for controlling sialylation of proteins produced by mammalian cells” (Immunex Corporation, priority 2002, dated 2010).

Turning to `O=C[C@H](O)[C@@H](O)[C@@H](O)[C@H](O)CO` [galactose], the “sialylation of TNFR:Fc (high salt-eluting fraction compared to a batch produced without medium additives)” value in assay [1] is “increases in sialylation”.

With `CC(=O)N[C@@H]1C(O)O[C@H](CO)[C@@H](O)[C@@H]1O` (some centres unmarked) [N-acetylmannosamine], in assay [2], the “sialylation of a protein produced by the cultured cells” value is on record as “increased sialylation”.
